The values below come from publication PMC10053925, “Virtual Screening of Novel 24-Dehydroxysterol Reductase (DHCR24) Inhibitors and the Biological Evaluation of Irbesartan in Cholesterol-Lowering Effect” (Molecules, 2023).

The structures appear in SMILES notation.

The target in assay [1] is T1, 3β-hydroxysterol-Δ(24)-reductase (DHCR24) (Homo sapiens, UniProt Q15392).
T1 construct: DHCR24 immunoprecipitated from HepG2 cells infected with Ad-cmv-DHCR24 (antibody-DHCR24 complex)
T1 sequence (Q15392 23-516): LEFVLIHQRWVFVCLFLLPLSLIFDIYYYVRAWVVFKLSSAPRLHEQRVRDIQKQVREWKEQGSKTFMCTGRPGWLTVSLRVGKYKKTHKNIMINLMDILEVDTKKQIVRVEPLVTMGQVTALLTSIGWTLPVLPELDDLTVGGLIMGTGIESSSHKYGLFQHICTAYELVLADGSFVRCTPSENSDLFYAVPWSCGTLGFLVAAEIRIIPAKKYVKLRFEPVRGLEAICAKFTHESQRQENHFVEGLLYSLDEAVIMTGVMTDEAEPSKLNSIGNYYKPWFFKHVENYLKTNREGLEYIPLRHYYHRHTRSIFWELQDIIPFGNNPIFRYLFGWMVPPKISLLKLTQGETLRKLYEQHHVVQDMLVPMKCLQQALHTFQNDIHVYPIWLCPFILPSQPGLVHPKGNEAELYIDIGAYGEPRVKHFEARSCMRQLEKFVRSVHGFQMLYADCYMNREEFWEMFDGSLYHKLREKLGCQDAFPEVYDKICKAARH
The assay can be described thus: immune complex-activity assay; HPLC of desmosterol to cholesterol conversion. In kind it is biochemical.

The target of assay [2] is T1, 3β-hydroxysterol-Δ(24)-reductase (DHCR24). Kind of assay: in vitro turnover to cholesterol by immunoprecipitated DHCR24, HPLC. In kind it is biochemical.

In turn, `CCCCC1=NC2(CCCC2)C(=O)N1Cc1ccc(-c2ccccc2-c2nnn[nH]2)cc1` [IRB, Irbesartan] came in with an IC50 in assay [1] of 602 nM. In the case of `CC(C)=CCC[C@@H](C)[C@H]1CC[C@H]2[C@@H]3CC=C4C[C@@H](O)CC[C@]4(C)[C@H]3CC[C@]12C` [DES, desmosterol], in assay [2], the “in vitro turnover to cholesterol by immunoprecipitated DHCR24, HPLC” value is given as “desmosterol in the system can be catalyzed into cholesterol only in the presence of the DHCR24 enzyme”.
